In one assay the test system is pERK in NCI-H1435 cells. Kind of assay: pERK inhibition in NF-1 mutant cell line NCI-H1435. The format is cell-based. The note with it: NCI-H1435 cells (NF-1 mutation), 1 hour with compound. From the text:
This Example illustrates that exemplary compounds of the present invention prevent increased KRas-mediated GTP nucleotide exchange mediated by SOS1 in NF-1 mutant cell lines to inhibit KRas activity thereby inhibiting the generation of the downstream effector pERK.
(§1) A cell line harboring activating mutation in NF-1 gene, NCI-H1435 (ATCC CRL-5870) and a cell line harboring activating mutation in NF-2 gene, NCI-H2052 (ATCC CRL-5915) were employed in these studies. NCI-H1435 and NCI-2052 cells (15,000/w) were seeded in a black clear flat bottom 96-well cell culture plate (Corning, #3904) and incubated at 37° C. overnight. Assay day 1, cells were dosed with compounds of Formula (I) with a […] starting concentration and serially diluted 3x for a total of 9 concentrations. The cells were incubated for 1 hour with the compounds solubilized in DMSO at 37° C. Cells were immediately fixed by adding 50 µL of 4% formaldehyde to all wells in a fume hood and the plates were incubated for 20 minutes at room temperature. The formaldehyde was discarded from the plates and 150 µL of ice-cold methanol was added to permeabilize the cells for 10 minutes at -20° C. The methanol was discarded from each of the plates and any liquid remaining in the plate by tapping the plate against paper towels. Cells were then blocked with 150 µL of Odyssey blocking buffer (LI-COR Biosciences #927-50010) using 0.05% Tween for 1 hour at room temperature on a shaker. The blocking buffer was discarded and 50 µL of primary antibodies pERK (cell signaling Technology #9101L; Rabbit, 1:500) and GapDH (Millipore #MAB34; Mouse, 1:5000) diluted in Odyssey blocking buffer was added. The plates were incubated overnight at 4° C. on a shaker.
On Assay day 2, the primary antibody solution was removed. […] The IC50 values were then calculated with the Graph pad Prism software.

The next assay has as its system pERK in NCI-H2052 cells. Kind of assay: pERK inhibition in NF-2 mutant cell line NCI-H2052. The format is cell-based. The note with it: Homo sapiens, NCI-H2052 cells (NF-2 mutation), 1 hour with compound.
In assay [1] the test system is pERK in MKN1 cells or H358. Kind of assay: pERK inhibition in MKN1 or H358 cells (In-Cell Western). The format is cell-based. The note with it: GAPDH normalized, 1 hour with compound, MKN1 or H358 cells (not specified which). The method, then:
This Example illustrates that exemplary compounds of the present invention prevent KRas-mediated GTP nucleotide exchange mediated by SOS1 to inhibit KRas activity thereby inhibiting the generation of the downstream effector pERK.
as §1, with “MKN1” for “A cell line harboring activating mutation in NF-1 gene, NCI-H1435 (ATCC CRL-5870) and a cell line harboring activating mutation in NF-2 gene, NCI-H2052 (ATCC CRL-5915) were employed in these studies. NCI-H1435 and NCI-2052”, “(15,000/w) or H358 (30,000/w)” for “(15,000/w)”
On Assay day 2, the primary antibody solution was removed. Each plate was washed 3x times with 150 µL of 1x PBST (PBS + 0.1 % Tween 20) and incubated with 50 µL of secondary antibodies: Anti-Rabbit (LI-COR Biosciences #926-32211) and Anti-Mouse (LI-COR Biosciences #68070) at 1:800 dilution in Odyssey blocking buffer with Tween at room temperature on a shaker for 2 hours (protected from light). The secondary antibody solution as removed and each plate was washed with PBST 3x times. Any liquid remaining was discarded and the plate was imaged using the Licor Odyssey machine according to the manufacturer’s instruction, using a set focus length at 3 mm and both 800 nm and 700 nm filters. The GAPDH normalized scan values for each well were divided by the average of vehicle wells to get the % of pERK inhibition. The IC50 values were then calculated with the Graph pad Prism software.

In assay [2] the target is T1, recombinant human SOS1 polypeptide (amino acids 560-1049) (Homo sapiens, UniProt Q07889).
T1 construct: corresponding to amino acids 560-1049, expressed in E. Coli; His (N); TEV site (N); made in house; host or cells: E. coli
T1 sequence (Q07889 560-1049): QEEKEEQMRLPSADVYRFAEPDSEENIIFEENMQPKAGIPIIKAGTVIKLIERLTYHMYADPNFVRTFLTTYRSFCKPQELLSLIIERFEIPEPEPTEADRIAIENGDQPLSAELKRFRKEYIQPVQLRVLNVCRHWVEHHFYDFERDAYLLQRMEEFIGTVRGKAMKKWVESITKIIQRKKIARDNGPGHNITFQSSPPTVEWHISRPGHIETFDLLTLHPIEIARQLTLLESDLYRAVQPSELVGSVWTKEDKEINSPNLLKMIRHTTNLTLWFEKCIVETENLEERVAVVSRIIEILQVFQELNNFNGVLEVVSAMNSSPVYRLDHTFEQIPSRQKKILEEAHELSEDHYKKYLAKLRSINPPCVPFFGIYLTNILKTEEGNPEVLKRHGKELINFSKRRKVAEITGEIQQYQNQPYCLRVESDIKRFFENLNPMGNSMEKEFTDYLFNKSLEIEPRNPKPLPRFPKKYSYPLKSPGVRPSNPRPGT
Kind of assay: HTRF displacement assay, binding to SOS1. The note with it: HTRF displacement of Cy5 labelled tracer, 1-hour incubation, Morrison equation.
Description: The ability of a compound of Formula (I) to bind to SOS1 was measured using a HTRF displacement assay. […] The HTRF ratio was calculated using the formula: [emission ⅟emission 2]*10000.
Background signals were calculated from well with a 10 µM inhibitor, known to inhibit 100% at that concentration. The background subtracted signals were converted to % binding relative to DMSO controls. Data were analyzed using XLFIT software (IDBS) using a Morrison equation for competitive binding and Ki’s were generated for compound of Formula (I).

Consider `Cc1c([C@@H](C)Nc2n[nH]c(=O)c3ccc(N4CCOCC4)cc23)cccc1C(F)(F)F` [Example 1-1], for which the IC50 in the assay on pERK in NCI-H1435 cells is 1.09 µM; in the assay with pERK in NCI-H2052 cells, greater than 10 µM; in assay [1], 1.32 µM. Besides, the Ki in assay [2] amounted to 0.06 µM.

Take `CNCc1ccccc1-c1csc([C@@H](C)Nc2n[nH]c(=O)c3ccc(N4CCOCC4)cc23)c1` [Example 1-2]: the concentration for half-maximal inhibition (IC50) stood at 0.311 µM in the assay with pERK in NCI-H1435 cells, 0.752 µM in the assay on pERK in NCI-H2052 cells and 0.202 µM in assay [1]. The Ki in assay [2] came to 0.01 µM.

With `CNCc1ccccc1-c1csc([C@@H](C)Nc2nn(C)c(=O)c3ccc(N4CCOCC4)cc23)c1` [Example 1-3, (R)methyl-4-((1-(4-(2-((methylamino)methyl)phenyl)thiophenyl)ethyl)amino)-6-morpholinophthalazin-1 (2H)-one], the IC50 turned out to be 0.522 µM with pERK in NCI-H1435 cells, 0.997 µM in the assay on pERK in NCI-H2052 cells and 0.265 µM in assay [1]. For the same compound, the Ki in assay [2] came out at 0.014 µM.

For the compound `Cc1c([C@@H](C)Nc2nn(C)c(=O)c3ccc(N4CCOCC4)cc23)cccc1C(F)(F)F` [Example 1-4], the Ki in assay [2] was 3 µM.

Take `Cc1c([C@@H](C)Nc2nn(C)c(=O)c3ccc(N4CCNCC4)cc23)cccc1C(F)(F)F` [Example 1-5]: the IC50 in assay [1] is 0.881 µM.

Regarding `Cc1c([C@@H](C)Nc2n[nH]c(=O)c3ccc(N4CCNCC4)cc23)cccc1C(F)(F)F` [Example 1-6], in assay [1], the IC50 came out at 0.114 µM.

In general, IC50 refers to the concentration at which inhibition is half-maximal. As a reminder, the Ki is the dissociation constant of the complex between target and ligand, obtained from inhibition or displacement.

For the origin of these results see patent publication US20230312482A1, “SOS1 INHIBITORS” (Mirati Therapeutics, Inc., priority 2020, published 2023).
